Where a name gives a salt, the structure may show the parent alone. Read-outs that look alike come from different tables or passages of the source. Where only a bound is given, the exact number is not on record here.

One assay addresses JH2 domain of human Tyk2 (Homo sapiens (Human), UniProt P29597). The experiment in a line: JH2 Biochemical Assay (TR-FRET probe displacement). Type of assay: binding.
A further assay deals with Tyk2 (Homo sapiens (Human), UniProt P29597). In words: pSTAT4 Cell Assay (MSD, NK92 cells). The assay is classed as cell-based.
Sequence of Tyk2 (P29597 whole entry, the tested form may be a part): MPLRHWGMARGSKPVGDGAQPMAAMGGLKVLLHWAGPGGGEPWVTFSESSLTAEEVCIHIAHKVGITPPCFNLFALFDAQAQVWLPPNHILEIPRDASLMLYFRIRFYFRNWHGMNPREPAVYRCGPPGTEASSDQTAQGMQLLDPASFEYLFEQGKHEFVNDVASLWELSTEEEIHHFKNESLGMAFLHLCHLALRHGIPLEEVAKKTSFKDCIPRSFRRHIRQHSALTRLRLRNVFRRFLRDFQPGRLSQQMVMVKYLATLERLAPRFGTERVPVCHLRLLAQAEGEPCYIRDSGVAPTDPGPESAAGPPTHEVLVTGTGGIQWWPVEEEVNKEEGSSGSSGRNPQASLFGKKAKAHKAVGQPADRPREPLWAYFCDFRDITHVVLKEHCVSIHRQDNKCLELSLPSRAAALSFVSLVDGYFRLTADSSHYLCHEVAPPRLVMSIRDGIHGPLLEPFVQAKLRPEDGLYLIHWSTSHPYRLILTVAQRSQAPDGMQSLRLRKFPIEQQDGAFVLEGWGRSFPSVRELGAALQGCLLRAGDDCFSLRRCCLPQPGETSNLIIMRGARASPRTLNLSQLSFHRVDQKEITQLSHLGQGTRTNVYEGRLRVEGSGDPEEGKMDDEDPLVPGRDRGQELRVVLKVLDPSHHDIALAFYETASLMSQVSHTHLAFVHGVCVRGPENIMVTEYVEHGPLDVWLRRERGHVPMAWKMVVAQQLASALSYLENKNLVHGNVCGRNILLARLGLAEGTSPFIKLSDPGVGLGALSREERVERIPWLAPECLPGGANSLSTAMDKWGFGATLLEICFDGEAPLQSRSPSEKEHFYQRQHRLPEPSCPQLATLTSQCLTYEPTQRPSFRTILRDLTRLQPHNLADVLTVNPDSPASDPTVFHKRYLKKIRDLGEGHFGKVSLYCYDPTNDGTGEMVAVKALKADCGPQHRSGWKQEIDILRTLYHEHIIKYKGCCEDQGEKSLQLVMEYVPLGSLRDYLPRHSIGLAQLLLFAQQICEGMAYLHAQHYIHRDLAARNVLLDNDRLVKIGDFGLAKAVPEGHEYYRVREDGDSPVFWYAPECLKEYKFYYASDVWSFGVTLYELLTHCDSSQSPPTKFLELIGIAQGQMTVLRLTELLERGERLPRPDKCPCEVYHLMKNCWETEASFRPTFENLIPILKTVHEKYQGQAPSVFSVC
Setting [1] is: JH2 domain of human Tyk2, TR-FRET probe displacement.
The mark [2] stands for this setting: TR-FRET probe displacement, JH2 domain.
Where [3] appears, read: TR-FRET probe displacement, JH2 domain of human Tyk2.

Sequence of JH2 domain of human Tyk2 (P29597 575-876): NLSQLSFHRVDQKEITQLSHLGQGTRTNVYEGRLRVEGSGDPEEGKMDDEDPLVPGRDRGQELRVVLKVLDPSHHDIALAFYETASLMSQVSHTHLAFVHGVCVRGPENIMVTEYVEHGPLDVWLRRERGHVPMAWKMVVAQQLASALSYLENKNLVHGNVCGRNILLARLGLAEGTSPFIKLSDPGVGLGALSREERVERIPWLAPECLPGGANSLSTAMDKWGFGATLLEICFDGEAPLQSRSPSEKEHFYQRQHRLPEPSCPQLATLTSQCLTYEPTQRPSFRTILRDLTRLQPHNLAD

As to `[2H]C([2H])([2H])C(=O)Nc1cc(Nc2ccnc(C(C)(F)F)n2)c(-c2ccc(OC)nn2)cn1` [Example 527, N-(4-((2-(1,1-difluoroethyl)pyrimidin-4-yl)amino)-5-(6-methoxypyridazin-3-yl)pyridin-2-yl)acetamide-2,2,2-d3], the IC50 on JH2 domain of human Tyk2 (setting [1]) and at Tyk2 (MSD) was at most 10 nM in each case.
In the case of `CC(=O)Nc1cc(Nc2cc(C(C)C)nc(C(C)(F)F)n2)c(F)cn1` [Example 817, N-(4-((2-(1,1-difluoroethyl)-6-isopropylpyrimidin-4-yl)amino)-5-fluoropyridin-2-yl)acetamide], the IC50 on JH2 domain of human Tyk2 (setting [2]) was 10 to 100 nM; against Tyk2 it was at least 1000 nM.
Regarding `COCCOc1cnc(NC(C)=O)cc1Nc1cccc(C2CCOC2)n1` (centres unmarked) [Example 72, N-(5-(2-methoxyethoxy)-4-((6-(tetrahydrofuran-3-yl)pyridin-2-yl)amino)pyridin-2-yl)acetamide], the IC50 was at most 10 nM at JH2 domain of human Tyk2 (setting [3]) and 100 to 1000 nM against Tyk2 (MSD).
The corresponding values for `C=C(F)c1cncc(Nc2cc(NC(C)=O)ncc2OCCOC)n1` [Example 90, N-(4-((6-(1-fluorovinyl)pyrazin-2-yl)amino)-5-(2-methoxyethoxy)pyridin-2-yl)acetamide] are at most 10 nM and 100 to 1000 nM.
The corresponding values for `CC(=O)Nc1cc(Nc2ccnc(C(C)(F)F)c2)c(-c2ncc(F)cn2)cn1` [Example 187, N-(4-((2-(1,1-difluoroethyl)pyridin-4-yl)amino)-5-(5-fluoropyrimidin-2-yl)pyridin-2-yl)acetamide] are 10 to 100 nM and at least 1000 nM.
In the case of `CC(=O)Nc1cc(Nc2cc(C)nc(C(C)(F)F)n2)c(OCC2CC(=O)N(C(C)C)C2)cn1` (centres unmarked) [Example 510, N-(4-((2-(1,1-difluoroethyl)-6-methylpyrimidin-4-yl)amino)-5-((1-isopropyl-5-oxopyrrolidin-3-yl)methoxy)pyridin-2-yl)acetamide], the IC50 on JH2 domain of human Tyk2 (setting [1]) was at most 10 nM; against Tyk2 (MSD), 100 to 1000 nM.
Regarding `CC(=O)Nc1cc(Nc2cc(C)nc(C(C)(F)F)n2)c(OCc2c(C)ncnc2C)cn1` [Example 330, N-(4-((2-(1,1-difluoroethyl)-6-methylpyrimidin-4-yl)amino)-5-((4,6-dimethylpyrimidin-5-yl)methoxy)pyridin-2-yl)acetamide], the IC50 on JH2 domain of human Tyk2 (setting [3]) was 10 to 100 nM; against Tyk2 (MSD) it was at least 1000 nM.
Turning to `CC(=O)Nc1cc(Nc2ccnc(C(C)(F)F)n2)c(-c2ccc(CN3CCC4(COC4)C3)cn2)cn1` [Example 703, N-(5-((2-oxa-6-azaspiro[3.4]octan-6-yl)methyl)-4′-((2-(1,1-difluoroethyl)pyrimidin-4-yl)amino)-[2,3′-bipyridin]-6′-yl)acetamide], the IC50 at JH2 domain of human Tyk2 (setting [1]) and on Tyk2 (MSD) was at most 10 nM in each case.
`CC(=O)Nc1cc(Nc2cc(C)nc(C(C)(F)F)n2)c(-c2cnc(C#N)cn2)cn1` [Example 838, N-(5-(5-cyanopyrazin-2-yl)-4-((2-(1,1-difluoroethyl)-6-methylpyrimidin-4-yl)amino)pyridin-2-yl)acetamide]: the IC50 on JH2 domain of human Tyk2 (setting [2]) is at most 10 nM; at Tyk2, 10 to 100 nM.
Regarding `COc1cnc(NC(C)=O)cc1Nc1cc(-c2cccnc2)nc(C(C)(F)F)n1` [Example 388, N-(4-((2-(1,1-difluoroethyl)-6-(pyridin-3-yl)pyrimidin-4-yl)amino)-5-methoxypyridin-2-yl)acetamide], the values for the IC50 at JH2 domain of human Tyk2 (setting [1]) and against Tyk2 (MSD) were at most 10 nM and 10 to 100 nM, respectively.
In the case of `CC(=O)Nc1cc(Nc2ccnc(C(C)(F)F)n2)c(-c2ncc(CN(C)C)s2)cn1` [Example 782, N-(4-((2-(1,1-difluoroethyl)pyrimidin-4-yl)amino)-5-(5-((dimethylamino)methyl)thiazol-2-yl)pyridin-2-yl)acetamide], the IC50 at JH2 domain of human Tyk2 (setting [2]) and against Tyk2 was at most 10 nM in each case.
`COCCOc1cnc(NC(C)=O)cc1Nc1cc(C)nc(C(C)(F)CF)n1` (centres unmarked) [Example 81, N-(4-((2-(1,2-difluoropropan-2-y1)-6-methylpyrimidin-4-yl)amino)-5-(2-methoxyethoxy)pyridin-2-yl)acetamide]: the IC50 was at most 10 nM on JH2 domain of human Tyk2 (setting [3]) and 10 to 100 nM on Tyk2 (MSD).
For `CC(=O)Nc1cc(Nc2cc(C)nc(C(C)(F)F)n2)c(OCC2CCC(=O)O2)cn1` (centres unmarked) [Example 499, N-(4-((2-(1,1-difluoroethyl)-6-methylpyrimidin-4-yl)amino)-5-((5-oxotetrahydrofuran-2-yl)methoxy)pyridin-2-yl)acetamide], the IC50 was at most 10 nM at JH2 domain of human Tyk2 (setting [1]) and 10 to 100 nM on Tyk2 (MSD).
Consider `COCCNc1cncc(-c2cnc(NC(C)=O)cc2Nc2ccnc(C(C)(F)F)n2)n1` [Example 274, N-(4-((2-(1,1-difluoroethyl)pyrimidin-4-yl)amino)-5-(6-((2-methoxyethyl)amino)pyrazin-2-yl)pyridin-2-yl)acetamide], for which the results for the IC50 at JH2 domain of human Tyk2 (setting [3]) and against Tyk2 (MSD) were at most 10 nM and 10 to 100 nM, respectively.
Take `CCc1cc(Nc2cc(NC(C)=O)ncc2-c2ccc(C#N)cn2)nc(C(C)(F)F)n1` [Example 583, N-(5-cyanO4′-((2-(1,1-difluoroethyl)-6-ethylpyrimidin-4-yl)amino)-[2,3′-bipyridin]-6′-yl)acetamide]: the IC50 at JH2 domain of human Tyk2 (setting [1]) and against Tyk2 (MSD) was at most 10 nM in each case.
For `CC(=O)Nc1cc(Nc2cc(C)nc(C3(F)CC3)n2)c(-c2ccn(C)n2)cn1` [Example 558, N-(4-((2-(1-fluorocyclopropyl)-6-methylpyrimidin-4-yl)amino)-5-(1-methyl-1H-pyrazol-3-yl)pyridin-2-yl)acetamide], the IC50 at JH2 domain of human Tyk2 (setting [1]) and against Tyk2 (MSD) was at most 10 nM throughout.
For the compound `COC(C)COc1cnc(NC(C)=O)cc1Nc1cc(C)nc(C(C)(F)F)n1` (centres unmarked) [Example 60, N-(4-((2-(1,1-difluoroethyl)-6-methylpyrimidin-4-yl)amino)-5-(2-methoxypropoxy)pyridin-2-yl)acetamide], the IC50 is at most 10 nM on JH2 domain of human Tyk2 (setting [3]) and 10 to 100 nM against Tyk2 (MSD).
Turning to `CC(=O)Nc1cc(Nc2cc(C)nc(C(C)(F)F)n2)c(-c2ccc(F)c(C#N)n2)cn1` [Example 633, N-(6-cyanO4′-((2-(1,1-difluoroethyl)-6-methylpyrimidin-4-yl)amino)-5-fluorO[2,3′-bipyridin]-6′-yl)acetamide], the IC50 at JH2 domain of human Tyk2 (setting [1]) and on Tyk2 (MSD) was at most 10 nM throughout.
`CC(=O)Nc1cc(Nc2cc(C)nc(C(C)(F)F)n2)c(-c2cc(C(C)(C)N(C)C)n(C)n2)cn1` [Example 802, N-(4-((2-(1,1-difluoroethyl)-6-methylpyrimidin-4-yl)amino)-5-(5-(2-(dimethylamino)propan-2-yl)-1-methyl-1H-pyrazol-3-yl)pyridin-2-yl)acetamide]: the IC50 on JH2 domain of human Tyk2 (setting [2]) and at Tyk2 was at most 10 nM each time.
Turning to `CC(=O)Nc1cc(Nc2cc(C)nc(C(C)(F)F)n2)c(-c2csc(C(C)C)n2)cn1` [Example 612, N-(4-((2-(1,1-difluoroethyl)-6-methylpyrimidin-4-yl)amino)-5-(2-isopropylthiazol-4-yl)pyridin-2-yl)acetamide], the IC50 at JH2 domain of human Tyk2 (setting [1]) and against Tyk2 (MSD) was at most 10 nM each time.
On to `COCc1csc(-c2cnc(NC(C)=O)cc2Nc2cc(C)nc(C(C)(F)F)n2)n1` [Example 233, N-(4-((2-(1,1-difluoroethyl)-6-methylpyrimidin-4-yl)amino)-5-(4-(methoxymethyl)thiazol-2-yl)pyridin-2-yl)acetamide], for which the IC50 on JH2 domain of human Tyk2 (setting [3]) and on Tyk2 (MSD) was at most 10 nM throughout.
For the compound `CCOc1cnc(NC(C)=O)cc1Nc1nc(C(C)(F)F)nc(C)c1F` [Example 35, N-(4-((2-(1,1-difluoroethyl)-5-fluoro-6-methylpyrimidin-4-yl)amino)-5-ethoxypyridin-2-yl)acetamide], the IC50 on JH2 domain of human Tyk2 (setting [3]) is at most 10 nM; against Tyk2 (MSD), 100 to 1000 nM.
The matching figures for `CCc1cc(Nc2cc(NC(C)=O)ncc2-c2ncc(F)cn2)nc(C(C)(F)F)n1` [Example 183, N-(4-((2-(1,1-difluoroethyl)-6-ethylpyrimidin-4-yl)amino)-5-(5-fluoropyrimidin-2-yl)pyridin-2-yl)acetamide]: at most 10 nM and 10 to 100 nM.
Turning to `CC(=O)Nc1cc(Nc2cc(C)nc(C(C)(F)F)n2)c(-c2cc3n(n2)CCN(C(C)=O)C3)cn1` [Example 222, N-(5-(5-acetyl-4,5,6,7-tetrahydropyrazolo[1,5-a]pyrazin-2-yl)-4-((2-(1,1-difluoroethyl)-6-methylpyrimidin-4-yl)amino)pyridin-2-yl)acetamide trifluoroacetate], the IC50 on JH2 domain of human Tyk2 (setting [3]) and against Tyk2 (MSD) was at most 10 nM throughout.
Take `COCc1ccc(-c2cnc(NC(C)=O)cc2Nc2cc(C)nc(C3CCOC3)n2)nc1` (centres unmarked) [Example 568, N-(5-(methoxymethyl)-4′-((6-methyl-2-(tetrahydrofuran-3-yl)pyrimidin-4-yl)amino)-[2,3′-bipyridin]-6′-yl)acetamide]: the IC50 on JH2 domain of human Tyk2 (setting [1]) and against Tyk2 (MSD) was at most 10 nM throughout.
Take `COC(C)(C)c1cc(-c2cnc(NC(C)=O)cc2Nc2cc(C)nc(C(C)(F)F)n2)nn1C` [Example 758, N-(4-((2-(1,1-difluoroethyl)-6-methylpyrimidin-4-yl)amino)-5-(5-(2-methoxypropan-2-yl)-1-methyl-1H-pyrazol-3-yl)pyridin-2-yl)acetamide]: the IC50 at JH2 domain of human Tyk2 (setting [2]) and against Tyk2 was at most 10 nM in each case.
For `COCCn1cc(-c2cnc(NC(C)=O)cc2Nc2cc(C)nc(C(C)(F)F)n2)nn1` [Example 259, N-(4-((2-(1,1-difluoroethyl)-6-methylpyrimidin-4-yl)amino)-5-(1-(2-methoxyethyl)-1H-1,2,3-triazol-4-yl)pyridin-2-yl)acetamide], the IC50 on JH2 domain of human Tyk2 (setting [3]) and against Tyk2 (MSD) was at most 10 nM throughout.
As for `CC(=O)Nc1cc(Nc2cc(C)nc(C34COC(C3)C4)n2)c(-c2cc(C(F)F)ccn2)cn1` [Example 576, N-(4′-((2-(2-oxabicyclo[2.1.1]hexan-4-yl)-6-methylpyrimidin-4-yl)amino)-4-(difluoromethyl)-[2,3′-bipyridin]-6′-yl)acetamide], the IC50 on JH2 domain of human Tyk2 (setting [1]) is at most 10 nM; on Tyk2 (MSD) it was 100 to 1000 nM.

Source of the values: patent US20260028365A1 (BIOGEN MA INC., priority 2022, published 2026).
